Experimental data from ChEMBL document CHEMBL5303573, “Mapping human microbiome drug metabolism by gut bacteria and their genes” (Nature, 2019).

Experiments:
[1] = The drug is tested on Parabacteroides merdae strain: ATCC43184 for biotransformation. The drug concentrations were measured before and after a 12-h incubation by liquid-chromatography-coupled mass spectrometry (LC–MS); details: 2 µM
[2] = bacteroides eggerthii, 12 h, 2 µM
Description: The drug is tested on Bacteroides eggerthii strain: DSM20697 for biotransformation. The drug concentrations were measured before and after a 12-h incubation by liquid-chromatography-coupled mass spectrometry (LC–MS)

[3] = The drug is tested on Clostridium sporogenes strain: ATCC15579 for biotransformation. The drug concentrations were measured before and after a 12-h incubation by liquid-chromatography-coupled mass spectrometry (LC–MS); details: 2 µM
[4] = The drug is tested on Bacteroides caccae strain: ATCC43185 for biotransformation. The drug concentrations were measured before and after a 12-h incubation by liquid-chromatography-coupled mass spectrometry (LC–MS); details: 2 µM
[5] = parabacteroides johnsonii, 12 h, 2 µM
Description: The drug is tested on Parabacteroides johnsonii strain: DSM18315 for biotransformation. The drug concentrations were measured before and after a 12-h incubation by liquid-chromatography-coupled mass spectrometry (LC–MS)

[6] = The drug is tested on Bacteroides vulgatus strain: ATCC8482 for biotransformation. The drug concentrations were measured before and after a 12-h incubation by liquid-chromatography-coupled mass spectrometry (LC–MS); details: phocaeicola vulgatus, 2 µM
[7] = The drug is tested on Blautia luti strain: DSM14534 for biotransformation. The drug concentrations were measured before and after a 12-h incubation by liquid-chromatography-coupled mass spectrometry (LC–MS); format: ADME; parameters: dose 2 uM, timepoint 0 vs 12 hours; details: 2 µM
[8] = The drug is tested on Providencia rettgeri strain: DSM1131 for biotransformation. The drug concentrations were measured before and after a 12-h incubation by liquid-chromatography-coupled mass spectrometry (LC–MS); format: ADME; parameters: dose 2 uM, timepoint 0 vs 12 hours; details: 2 µM
[9] = akkermansia muciniphila, 12 h, 2 µM
Description: The drug is tested on Akkermansia muciniphila strain: ATCC BAA-835 for biotransformation. The drug concentrations were measured before and after a 12-h incubation by liquid-chromatography-coupled mass spectrometry (LC–MS)

[10] = The drug is tested on Clostridium symbiosum strain: ATCC14940 for biotransformation. The drug concentrations were measured before and after a 12-h incubation by liquid-chromatography-coupled mass spectrometry (LC–MS); details: 2 µM
[11] = The drug is tested on Clostridium ramosum strain: DSM1402 for biotransformation. The drug concentrations were measured before and after a 12-h incubation by liquid-chromatography-coupled mass spectrometry (LC–MS); details: thomasclavelia ramosa, 2 µM
[12] = The drug is tested on Edwardsiella tarda strain: ATCC23685 for biotransformation. The drug concentrations were measured before and after a 12-h incubation by liquid-chromatography-coupled mass spectrometry (LC–MS); details: 2 µM
[13] = The drug is tested on Bifidobacterium breve strain: DSM20213 for biotransformation. The drug concentrations were measured before and after a 12-h incubation by liquid-chromatography-coupled mass spectrometry (LC–MS); details: 2 µM
[14] = The drug is tested on Bacteroides uniformis strain: ATCC8492 for biotransformation. The drug concentrations were measured before and after a 12-h incubation by liquid-chromatography-coupled mass spectrometry (LC–MS); details: 2 µM
[15] = bacteroides fragilis, 12 h, 2 µM
Description: The drug is tested on Bacteroides fragilis strain: DS-208 for biotransformation. The drug concentrations were measured before and after a 12-h incubation by liquid-chromatography-coupled mass spectrometry (LC–MS)

[16] = The drug is tested on Bifidobacterium ruminantium strain: fecal isolate for biotransformation. The drug concentrations were measured before and after a 12-h incubation by liquid-chromatography-coupled mass spectrometry (LC–MS); details: 2 µM
[17] = bacteroides fragilis, 12 h, 2 µM; remark: listed apart in the source
Description: The drug is tested on Bacteroides fragilis strain: NCTC 9343 for biotransformation. The drug concentrations were measured before and after a 12-h incubation by liquid-chromatography-coupled mass spectrometry (LC–MS)

[18] = bacteroides stercoris, 12 h, 2 µM
Description: The drug is tested on Bacteroides stercoris strain: ATCC43183 for biotransformation. The drug concentrations were measured before and after a 12-h incubation by liquid-chromatography-coupled mass spectrometry (LC–MS)

[19] = The drug is tested on Bacteroides sp. WH2 strain: WH2 for biotransformation. The drug concentrations were measured before and after a 12-h incubation by liquid-chromatography-coupled mass spectrometry (LC–MS); details: bacteroides sp. wh2, 12 h, 2 µM
[20] = limosilactobacillus reuteri cf48-3a, 12 h, 2 µM
Description: The drug is tested on Lactobacillus reuteri CF48-3A strain: BEI HM-102 for biotransformation. The drug concentrations were measured before and after a 12-h incubation by liquid-chromatography-coupled mass spectrometry (LC–MS)

CN1CCc2c(c3ccccc3n2Cc2ccccc2)C1.CN1CCc2c(c3ccccc3n2Cc2ccccc2)C1.O=S(=O)(O)c1cccc2c(S(=O)(=O)O)cccc12
Bacterial Biotransformation [1]: Compound NOT metabolized | Bacterial Biotransformation [2]: Compound NOT metabolized | Bacterial Biotransformation [3]: Compound NOT metabolized | Bacterial Biotransformation [4]: Compound NOT metabolized | Bacterial Biotransformation [5]: Compound NOT metabolized | Bacterial Biotransformation [6]: Compound NOT metabolized | Bacterial Biotransformation [7]: Compound NOT metabolized | Bacterial Biotransformation [8]: Compound NOT metabolized | Bacterial Biotransformation [9]: Compound NOT metabolized | Bacterial Biotransformation [10]: Compound NOT metabolized | Bacterial Biotransformation [11]: Compound NOT metabolized | Bacterial Biotransformation [12]: Compound NOT metabolized | Bacterial Biotransformation [13]: Compound NOT metabolized | Bacterial Biotransformation [14]: Compound NOT metabolized | Bacterial Biotransformation [15]: Compound NOT metabolized | Bacterial Biotransformation [16]: Compound NOT metabolized | Bacterial Biotransformation [17]: Compound NOT metabolized | Bacterial Biotransformation [18]: Compound NOT metabolized | Bacterial Biotransformation [19]: Compound NOT metabolized | Bacterial Biotransformation [20]: Compound NOT metabolized

CCN(CC)C(=O)C1(c2ccccc2)CC1CN (stereo unspecified)
Bacterial Biotransformation [1]: Compound NOT metabolized | Bacterial Biotransformation [2]: Compound NOT metabolized | Bacterial Biotransformation [3]: Compound NOT metabolized | Bacterial Biotransformation [4]: Compound NOT metabolized | Bacterial Biotransformation [5]: Compound NOT metabolized | Bacterial Biotransformation [6]: Compound NOT metabolized | Bacterial Biotransformation [7]: Compound NOT metabolized | Bacterial Biotransformation [8]: Compound NOT metabolized | Bacterial Biotransformation [9]: Compound NOT metabolized | Bacterial Biotransformation [10]: Compound NOT metabolized | Bacterial Biotransformation [11]: Compound NOT metabolized | Bacterial Biotransformation [12]: Compound NOT metabolized | Bacterial Biotransformation [13]: Compound NOT metabolized | Bacterial Biotransformation [15]: Compound NOT metabolized | Bacterial Biotransformation [16]: Compound NOT metabolized | Bacterial Biotransformation [17]: Compound NOT metabolized | Bacterial Biotransformation [18]: Compound NOT metabolized | Bacterial Biotransformation [19]: Compound NOT metabolized | Bacterial Biotransformation [20]: Compound NOT metabolized

O=c1[nH]c2ccccc2n1CCCN1CCC(n2c(=O)[nH]c3cc(Cl)ccc32)CC1 [DOMPERIDONE]
Bacterial Biotransformation [1]: Compound NOT metabolized | Bacterial Biotransformation [2]: Compound NOT metabolized | Bacterial Biotransformation [3]: Compound NOT metabolized | Bacterial Biotransformation [4]: Compound NOT metabolized | Bacterial Biotransformation [5]: Compound NOT metabolized | Bacterial Biotransformation [6]: Compound NOT metabolized | Bacterial Biotransformation [7]: Compound NOT metabolized | Bacterial Biotransformation [8]: Compound NOT metabolized | Bacterial Biotransformation [9]: Compound NOT metabolized | Bacterial Biotransformation [10]: Compound NOT metabolized | Bacterial Biotransformation [11]: Compound NOT metabolized | Bacterial Biotransformation [12]: Compound NOT metabolized | Bacterial Biotransformation [13]: Compound NOT metabolized | Bacterial Biotransformation [14]: Compound NOT metabolized | Bacterial Biotransformation [15]: Compound NOT metabolized | Bacterial Biotransformation [16]: Compound NOT metabolized | Bacterial Biotransformation [17]: Compound NOT metabolized | Bacterial Biotransformation [18]: Compound NOT metabolized | Bacterial Biotransformation [19]: Compound NOT metabolized | Bacterial Biotransformation [20]: Compound NOT metabolized

OCCN1CCN(CCCN2c3ccccc3Sc3ccc(C(F)(F)F)cc32)CC1 [FLUPHENAZINE]
Bacterial Biotransformation [1]: Compound NOT metabolized | Bacterial Biotransformation [2]: Compound NOT metabolized | Bacterial Biotransformation [3]: Compound NOT metabolized | Bacterial Biotransformation [4]: Compound metabolized | Bacterial Biotransformation [5]: Compound metabolized | Bacterial Biotransformation [6]: Compound metabolized | Bacterial Biotransformation [7]: Compound NOT metabolized | Bacterial Biotransformation [8]: Compound NOT metabolized | Bacterial Biotransformation [9]: Compound NOT metabolized | Bacterial Biotransformation [11]: Compound metabolized | Bacterial Biotransformation [12]: Compound NOT metabolized | Bacterial Biotransformation [13]: Compound NOT metabolized | Bacterial Biotransformation [14]: Compound metabolized | Bacterial Biotransformation [15]: Compound metabolized | Bacterial Biotransformation [16]: Compound NOT metabolized | Bacterial Biotransformation [17]: Compound metabolized | Bacterial Biotransformation [18]: Compound metabolized | Bacterial Biotransformation [19]: Compound NOT metabolized | Bacterial Biotransformation [20]: Compound metabolized

COC1=C(OC)C(=O)C(CCCCCCCCCCO)=C(C)C1=O [IDEBENONE]
Bacterial Biotransformation [1]: Compound NOT metabolized | Bacterial Biotransformation [2]: Compound NOT metabolized | Bacterial Biotransformation [3]: Compound metabolized | Bacterial Biotransformation [4]: Compound metabolized | Bacterial Biotransformation [5]: Compound NOT metabolized | Bacterial Biotransformation [6]: Compound metabolized | Bacterial Biotransformation [7]: Compound metabolized | Bacterial Biotransformation [8]: Compound NOT metabolized | Bacterial Biotransformation [9]: Compound NOT metabolized | Bacterial Biotransformation [10]: Compound NOT metabolized | Bacterial Biotransformation [11]: Compound NOT metabolized | Bacterial Biotransformation [12]: Compound NOT metabolized | Bacterial Biotransformation [13]: Compound NOT metabolized | Bacterial Biotransformation [14]: Compound metabolized | Bacterial Biotransformation [15]: Compound metabolized | Bacterial Biotransformation [16]: Compound NOT metabolized | Bacterial Biotransformation [17]: Compound metabolized | Bacterial Biotransformation [18]: Compound NOT metabolized | Bacterial Biotransformation [19]: Compound NOT metabolized | Bacterial Biotransformation [20]: Compound NOT metabolized

COc1ccc2c(c1)c(CC(=O)O)c(C)n2C(=O)c1ccc(Cl)cc1 [INDOMETHACIN]
Bacterial Biotransformation [1]: Compound metabolized | Bacterial Biotransformation [2]: Compound NOT metabolized | Bacterial Biotransformation [3]: Compound NOT metabolized | Bacterial Biotransformation [4]: Compound metabolized | Bacterial Biotransformation [5]: Compound metabolized | Bacterial Biotransformation [6]: Compound metabolized | Bacterial Biotransformation [7]: Compound NOT metabolized | Bacterial Biotransformation [8]: Compound NOT metabolized | Bacterial Biotransformation [9]: Compound metabolized | Bacterial Biotransformation [10]: Compound metabolized | Bacterial Biotransformation [11]: Compound NOT metabolized | Bacterial Biotransformation [12]: Compound NOT metabolized | Bacterial Biotransformation [13]: Compound NOT metabolized | Bacterial Biotransformation [14]: Compound metabolized | Bacterial Biotransformation [15]: Compound metabolized | Bacterial Biotransformation [16]: Compound NOT metabolized | Bacterial Biotransformation [17]: Compound metabolized | Bacterial Biotransformation [18]: Compound metabolized | Bacterial Biotransformation [19]: Compound metabolized | Bacterial Biotransformation [20]: Compound metabolized

COC(=O)C1=C(C)NC(C)=C(C(=O)OC(C)C)C1c1cccc2nonc12 (stereo unspecified) [ISRADIPINE]
Bacterial Biotransformation [1]: Compound NOT metabolized | Bacterial Biotransformation [2]: Compound NOT metabolized | Bacterial Biotransformation [3]: Compound NOT metabolized | Bacterial Biotransformation [5]: Compound NOT metabolized | Bacterial Biotransformation [6]: Compound NOT metabolized | Bacterial Biotransformation [7]: Compound NOT metabolized | Bacterial Biotransformation [8]: Compound NOT metabolized | Bacterial Biotransformation [9]: Compound NOT metabolized | Bacterial Biotransformation [10]: Compound NOT metabolized | Bacterial Biotransformation [11]: Compound NOT metabolized | Bacterial Biotransformation [12]: Compound NOT metabolized | Bacterial Biotransformation [13]: Compound NOT metabolized | Bacterial Biotransformation [14]: Compound NOT metabolized | Bacterial Biotransformation [15]: Compound NOT metabolized | Bacterial Biotransformation [16]: Compound NOT metabolized | Bacterial Biotransformation [17]: Compound NOT metabolized | Bacterial Biotransformation [18]: Compound NOT metabolized | Bacterial Biotransformation [20]: Compound NOT metabolized

CCC(C)n1ncn(-c2ccc(N3CCN(c4ccc(OCC5COC(Cn6cncn6)(c6ccc(Cl)cc6Cl)O5)cc4)CC3)cc2)c1=O (stereo unspecified) [ITRACONAZOLE]
Bacterial Biotransformation [1]: Compound NOT metabolized | Bacterial Biotransformation [2]: Compound NOT metabolized | Bacterial Biotransformation [3]: Compound NOT metabolized | Bacterial Biotransformation [4]: Compound NOT metabolized | Bacterial Biotransformation [5]: Compound NOT metabolized | Bacterial Biotransformation [6]: Compound NOT metabolized | Bacterial Biotransformation [7]: Compound NOT metabolized | Bacterial Biotransformation [8]: Compound NOT metabolized | Bacterial Biotransformation [9]: Compound NOT metabolized | Bacterial Biotransformation [10]: Compound NOT metabolized | Bacterial Biotransformation [11]: Compound NOT metabolized | Bacterial Biotransformation [12]: Compound NOT metabolized | Bacterial Biotransformation [13]: Compound NOT metabolized | Bacterial Biotransformation [14]: Compound NOT metabolized | Bacterial Biotransformation [15]: Compound NOT metabolized | Bacterial Biotransformation [16]: Compound NOT metabolized | Bacterial Biotransformation [17]: Compound NOT metabolized | Bacterial Biotransformation [18]: Compound NOT metabolized | Bacterial Biotransformation [19]: Compound NOT metabolized | Bacterial Biotransformation [20]: Compound NOT metabolized
